Where a name gives a salt, the structure may show the parent alone.
Target: T1, human factor XIa (Homo sapiens, UniProt P03951)
T1 construct: purchased Kordia
Experiment: Measurement of FXIa inhibition (fluorogenic peptide substrate Boc-Glu(OBzl)-Ala-Arg-AMC)
Type: biochemical
Settings: factor XIa from Kordia, 15 min preincubation, 30 min at 22° C., fluorescence
Protocol: The factor XIa inhibition of the inventive substances is determined using a biochemical test system which utilizes the reaction of a peptidic factor XIa substrate to determine the enzymatic activity of human factor XIa. Here, factor XIa cleaves from the peptic factor XIa substrate the C-terminal aminomethylcoumarin (AMC), the fluorescence of which is measured. The determinations are carried out in microtitre plates.
Test substances are dissolved in dimethyl sulphoxide and serially diluted in dimethyl sulphoxide (3000 μM to 0.0078 μM; resulting final concentrations in the test: 50 μM to 0.00013 μM). In each case 1 μl of the diluted substance solutions is placed into the wells of white microtitre plates from Greiner (384 wells). Subsequently, the following are added successively: 20 μl of assay buffer (50 mmol/l Tris buffer pH 7.4; 100 mmol/l sodium chloride; 5 mmol/l calcium chloride; 0.1% bovine serum albumin) and 20 μl of factor XIa from Kordia (0.45 nM in assay buffer). After 15 min of incubation, the enzyme reaction is started by addition of 20 μl of the factor XIa substrate Boc-Glu(OBzl)-Ala-Arg-AMC dissolved in assay buffer (10 μM in assay buffer) from Bachem, the mixture is incubated at room temperature (22° C.) for 30 min and fluorescence is then measured (excitation: 360 nm, emission: 460 nm). The measured emissions of the test mixtures with test substance are compared to those of control mixtures without test substance (only dimethyl sulphoxide instead of test substance in dimethyl sulphoxide), and the IC50 values are calculated from the concentration/activity relationships.

T1 sequence (P03951 388-625 limits assumed): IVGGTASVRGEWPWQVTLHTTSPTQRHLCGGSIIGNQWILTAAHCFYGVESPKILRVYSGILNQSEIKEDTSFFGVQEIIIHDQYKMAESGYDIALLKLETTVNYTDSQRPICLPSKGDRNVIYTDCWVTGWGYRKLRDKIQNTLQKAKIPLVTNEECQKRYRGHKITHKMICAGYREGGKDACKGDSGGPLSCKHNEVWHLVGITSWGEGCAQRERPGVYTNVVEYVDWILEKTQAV
T1 sequence (P03951 19-387 partner limits assumed): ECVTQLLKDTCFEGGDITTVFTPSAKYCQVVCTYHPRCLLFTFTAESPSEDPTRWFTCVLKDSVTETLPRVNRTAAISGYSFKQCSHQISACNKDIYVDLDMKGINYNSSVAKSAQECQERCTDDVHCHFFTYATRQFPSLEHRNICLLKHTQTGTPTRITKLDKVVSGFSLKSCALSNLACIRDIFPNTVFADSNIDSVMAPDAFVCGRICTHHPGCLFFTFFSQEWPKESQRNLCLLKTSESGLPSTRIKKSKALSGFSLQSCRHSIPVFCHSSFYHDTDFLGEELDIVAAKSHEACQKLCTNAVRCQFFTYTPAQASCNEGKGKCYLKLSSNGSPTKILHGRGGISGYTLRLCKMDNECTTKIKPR

IC50 [nM]	SMILES
2.5	Cc1cc(C(=O)N[C@@H]2CCNC2)ccc1-c1ccc(C[C@H](NC(=O)[C@H]2CC[C@H](CN)CC2)C(=O)Nc2ccc(-c3nc(C(F)(F)C(F)(F)F)n[nH]3)cc2)cc1 [Example 75, 4′-[(2S)-2-({[trans-4-(Aminomethyl)cyclohexyl]carbonyl}amino)-3-oxo-3-({4-[3-(pentafluoroethyl)-1H-1,2,4-triazol-5-yl]phenyl}amino)propyl]-2-methyl-N-[(3R)-pyrrolidin-3-yl]biphenyl-4-carboxamide hydrochloride]
1.6	Cc1cc(C(=O)N[C@@H]2CCCCNC2=O)ccc1-c1ccc(C[C@H](NC(=O)[C@H]2CC[C@H](CN)CC2)C(=O)Nc2ccc(-c3nn[nH]n3)cc2)cc1 [Example 64, 4′-[(2S)-2-({[trans-4-(Aminomethyl)cyclohexyl]carbonyl}amino)-3-oxo-3-{[4-(2H-tetrazol-5-yl)phenyl]amino}propyl]-2-methyl-N-[(3R)-2-oxoazepan-3-yl]biphenyl-4-carboxamide hydrochloride]
7.4	COc1cc(C(=O)N[C@@H]2CCNC2)ccc1-c1ccc(C[C@H](NC(=O)[C@H]2CC[C@H](CN)CC2)C(=O)Nc2ccc(-c3nn[nH]n3)cc2)cc1 [Example 71, 4′-[(2S)-2-({[trans-4-(Aminomethyl)cyclohexyl]carbonyl}amino)-3-oxo-3-{[4-(2H-tetrazol-5-yl)phenyl]amino}propyl]-2-methoxy-N-[(3R)-pyrrolidin-3-yl]biphenyl-4-carboxamide hydrochloride]
4.6	COc1cc(C(=O)NC2CCC(N(C)C)CC2)ccc1-c1ccc(C[C@H](NC(=O)[C@H]2CC[C@H](CN)CC2)C(=O)Nc2ccc(-c3nn[nH]n3)cc2)cc1 (stereo partly drawn) [Example 67, 4′-[(2S)-2-({[trans-4-(Aminomethyl)cyclohexyl]carbonyl}amino)-3-oxo-3-{[4-(2H-tetrazol-5-yl)phenyl]amino}propyl]-N-[4-(dimethylamino)cyclohexyl]-2-methoxybiphenyl-4-carboxamide hydrochloride]

More lines, now with the values behind:

SMILES	IC50 [nM]
Cc1cc(C(=O)N[C@H]2CC[C@H](O)CC2)ccc1-c1ccc(C[C@@H](NC(=O)[C@H]2CC[C@H](CN)CC2)C(=O)Nc2ccc(-c3nnc(C(F)(F)C(F)(F)C(=O)O)[nH]3)cc2)cc1 (single isomer, unassigned; enantiomer 2) [Example 105]	65
Cc1cc(C(=O)NC2CCCNC2=O)ccc1-c1ccc(C[C@H](NC(=O)[C@H]2CC[C@H](CN)CC2)C(=O)Nc2ccc(-c3nc(C(F)F)n[nH]3)cc2)cc1 (stereo partly drawn) [Example 74, 4′-[(2S)-2-({[trans-4-(Aminomethyl)cyclohexyl]carbonyl}amino)-3-({4-[3-(difluoromethyl)-1H-1,2,4-triazol-5-yl]phenyl}amino)-3-oxopropyl]-2-methyl-N-(2-oxopiperidin-3-yl)biphenyl-4-carboxamide hydrochloride]	1.3
Cc1cc(C(=O)NC2CCC(N(C)C)CC2)ccc1-c1ccc(C[C@H](NC(=O)[C@H]2CC[C@H](CN)CC2)C(=O)Nc2ccc3c(=O)[nH][nH]c3c2)cc1 (stereo partly drawn) [Example 68, 4′-{(2S)-2-({[trans-4-(Aminomethyl)cyclohexyl]carbonyl}amino)-3-oxo-3-[(3-oxo-2,3-dihydro-1H-indazol-6-yl)amino]propyl}-N-[4-(dimethylamino)cyclohexyl]-2-methylbiphenyl-4-carboxamide hydrochloride]	8.3
Cc1cc(C(=O)N2CCS(=O)(=O)CC2)ccc1-c1ccc(C[C@H](NC(=O)[C@H]2CC[C@H](CN)CC2)C(=O)Nc2ccc(-c3nn[nH]n3)cc2)cc1 [Example 69, trans-4-(Aminomethyl)-N-[(2S)-3-{4′-[(1,1-dioxidothiomorpholin-4-yl)carbonyl]-2′-methyl-biphenyl-4-yl}-1-oxo-1-{[4-(2H-tetrazol-5-yl)phenyl]amino}propan-2-yl]cyclohexanecarboxamide hydrochloride]	2.4

Source: patent US20160272617A1, “SUBSTITUTED PHENYLALANINE DERIVATIVES” (BAYER PHARMA AKTIENGESELLSCHAFT, priority 2013, published 2016)
